For 35 molecules, EC50 results are on record in patent US20150291598A1 (NOVARTIS AG, priority 2012, published 2015).

Each structure is given as a SMILES string. Where two headings read alike, the source gives them in different places.

The subject of this assay is P. falciparum (NF54 or 3D7 strain). Nature of the assay: Assay for P. falciparum proliferation in infected human blood cells (SYBR Green). It counts as cell-based, Plasmodium falciparum. The note with it: Plasmodium falciparum, 72 h, NF54 or 3D7 infected human erythrocytes, 72 hours, read-out: EC50 (nM), inhibitory efficacy in delaying P. falciparum proliferation in infected human blood cells. Summed up:
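NF54 or 3D7 parasites in O+ human erythrocytes at 2.5% hematocrit and 0.3% parasitemia final, exposed to compounds 72 h at 37 °C under 93% N2/4% CO2/3% O2.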

Setting [1] is: 3D7|NF54, Erythrocyte, in Homo sapiens.

With `CN(C(=O)c1cn2c(-c3ccc4c(ccn4C)c3)cnc2cn1)c1ccc(Cl)cc1` [Compound 141, N-(4-chlorophenyl)-N-methyl-3-(1-methyl-1H-indol-5-yl)imidazo[1,2-a]pyrazine-6-carboxamide], under “Erythrocyte”, the EC50 is 433 nM. `CN(C(=O)c1cn2c(-c3ccc(OC(F)F)cc3)cnc2cn1)c1ccc(F)c(F)c1` [Compound 142, 3-[4-(difluoromethoxy)phenyl]-N-(3,4-difluorophenyl)-N-methylimidazo[1,2-a]pyrazine-6-carboxamide]: the EC50 (Erythrocyte) worked out at 202 nM. On to `CN(C(=O)c1cn2c(-c3ccc4[nH]cnc4c3)cnc2cn1)c1ccc(C#N)cc1` [Compound 143, 3-(1H-1,3-benzodiazol-5-yl)-N-(4-cyanophenyl)-N-methylimidazo[1,2-a]pyrazine-6-carboxamide], for which the EC50 (Erythrocyte) is 1560 nM. `CN(C(=O)c1cn2c(-c3ccc(-n4cccn4)cc3)cnc2cn1)c1ccc(F)c(F)c1` [Compound 144, N-(3,4-difluorophenyl)-N-methyl-3-[4-(1H-pyrazol-1-yl)phenyl]imidazo[1,2-a]pyrazine-6-carboxamide]: the EC50 (Erythrocyte) was found to be 366 nM.

Regarding `CN(C(=O)c1cn2c(-c3ccc4[nH]ncc4c3)cnc2cn1)c1ccc(C#N)cc1` [Compound 145, N-(4-cyanophenyl)-3-(1H-indazol-5-yl)-N-methylimidazo[1,2-a]pyrazine-6-carboxamide], the EC50 (Erythrocyte) amounted to 648 nM. For the molecule `CN(C(=O)c1cn2c(-c3ccc(-n4ccnc4)cc3)cnc2cn1)c1ccc(C#N)cc1` [Compound 146], the EC50 under setting [1] was determined as 462 nM. For the molecule `CN(C(=O)c1cn2c(-c3ccc(C(F)(F)F)cc3)cnc2cn1)c1ccc(C#N)nc1` [Compound 147, N-(6-cyanopyridin-3-yl)-N-methyl-3-[4-(trifluoromethyl)phenyl]imidazo[1,2-a]pyrazine-6-carboxamide], the EC50 (Erythrocyte) turned out to be 564 nM. For the molecule `CN(C(=O)c1cn2c(-c3ccc(S(N)(=O)=O)cc3)cnc2cn1)c1ccc(C#N)cc1` [Compound 148], the EC50 under setting [1] came out at 1360 nM.

As for `CN(C(=O)c1cn2c(-c3ccc4nn(C)cc4c3)cnc2cn1)c1ccc(C#N)cc1` [Compound 149, N-(4-cyanophenyl)-N-methyl-3-(2-methyl-2H-indazol-5-yl)imidazo[1,2-a]pyrazine-6-carboxamide], the EC50 (Erythrocyte) amounted to 1520 nM. As for `Cc1cc(C(F)(F)F)ccc1-c1cnc2cnc(C(=O)N(C)c3ccc(C#N)cc3)cn12` [Compound 150, N-(4-cyanophenyl)-N-methyl-3-[2-methyl-4-(trifluoromethyl)phenyl]imidazo[1,2-a]pyrazine-6-carboxamide], the EC50 (Erythrocyte) was 3590 nM. As to `CN(C(=O)c1cn2c(-c3ccc(-n4cccn4)cc3)cnc2cn1)c1ccc(F)cc1` [Compound 151, N-(4-fluorophenyl)-N-methyl-3-[4-(1H-pyrazol-1-yl)phenyl]imidazo[1,2-a]pyrazine-6-carboxamide], the EC50 (Erythrocyte) is 673 nM. `CC(C)S(=O)(=O)c1ccc(-c2cnc3cnc(C(=O)N(C)c4ccc(C#N)cc4)cn23)cc1` [Compound 152, N-(4-cyanophenyl)-N-methyl-3-[4-(propane-2-sulfonyl)phenyl]imidazo[1,2-a]pyrazine-6-carboxamide]: where the note is “Erythrocyte”, the EC50 worked out at 3170 nM. `CN(C(=O)c1cn2c(-c3ccc(F)cc3)cnc2cn1)c1ccc(C#N)cc1` [Compound 153, N-(4-cyanophenyl)-3-(4-fluorophenyl)-N-methylimidazo[1,2-a]pyrazine-6-carboxamide]: for the setting “Erythrocyte”, the EC50 amounted to 2060 nM. Turning to `CN(C(=O)c1cn2c(-c3ccc4cn[nH]c4c3)cnc2cn1)c1ccc(C#N)cc1` [Compound 154, N-(4-cyanophenyl)-3-(1H-indazol-6-yl)-N-methylimidazo[1,2-a]pyrazine-6-carboxamide], where the note is “Erythrocyte”, the EC50 was 2690 nM. In the case of `CN(C(=O)c1cn2c(-c3ccc(Cl)c(C#N)c3)cnc2cn1)c1ccc(C#N)cc1` [Compound 155, 3-(4-chloro-3-cyanophenyl)-N-(4-cyanophenyl)-N-methylimidazo[1,2-a]pyrazine-6-carboxamide], the EC50 (Erythrocyte) was found to be 2390 nM.

In the case of `CC(C)c1nc(-c2cnc3cnc(C(=O)N(C)c4ccc(C#N)cc4)cn23)cs1` [Compound 156, N-(4-cyanophenyl)-N-methyl-3-[2-(propan-2-yl)-1,3-thiazol-4-yl]imidazo[1,2-a]pyrazine-6-carboxamide], under “Erythrocyte”, the EC50 stood at 391 nM. Consider `CN(C(=O)c1cn2c(-c3ccc4ncccc4c3)cnc2cn1)c1ccc(C#N)cc1` [Compound 157, N-(4-cyanophenyl)-N-methyl-3-(quinolin-6-yl)imidazo[1,2-a]pyrazine-6-carboxamide], for which the EC50 (Erythrocyte) was 2010 nM.

As for `CN(C(=O)c1cn2c(-c3ccc(C(=O)NC4CC4)cc3)cnc2cn1)c1ccc(C#N)cc1` [Compound 158, N-(4-cyanophenyl)-3-[4-(cyclopropylcarbamoyl)phenyl]-N-methylimidazo[1,2-a]pyrazine-6-carboxamide], under “Erythrocyte”, the EC50 amounted to 2050 nM. As to `CN(C)c1ccc(-c2cnc3cnc(C(=O)N(C)c4ccc(F)c(F)c4)cn23)cc1` [Compound 159, N-(3,4-difluorophenyl)-3-[4-(dimethylamino)phenyl]-N-methylimidazo[1,2-a]pyrazine-6-carboxamide], the EC50 (Erythrocyte) turned out to be 368 nM. Regarding `Cc1cc(C)n(-c2ccc(-c3cnc4cnc(C(=O)N(C)c5ccc(C#N)cc5)cn34)cc2)n1` [Compound 160, N-(4-cyanophenyl)-3-[4-(3,5-dimethyl-1H-pyrazol-1-yl)phenyl]-N-methylimidazo[1,2-a]pyrazine-6-carboxamide], the EC50 (Erythrocyte) stood at 1750 nM.

As to `CN(C(=O)c1cn2c(-c3ccc(C(N)=O)cc3)cnc2cn1)c1ccc(Cl)nc1` [Compound 161, 3-(4-carbamoylphenyl)-N-(6-chloropyridin-3-yl)-N-methylimidazo[1,2-a]pyrazine-6-carboxamide], the EC50 (Erythrocyte) is 1470 nM. Take `CC(C)Oc1ccc(-c2cnc3cnc(C(=O)N(C)c4ccc(C#N)cc4)cn23)cc1` [Compound 162, N-(4-cyanophenyl)-N-methyl-3-[4-(propan-2-yloxy)phenyl]imidazo[1,2-a]pyrazine-6-carboxamide]: the EC50 (Erythrocyte) was determined as 318 nM.

As to `Cc1nnc(-c2ccc(-c3cnc4cnc(C(=O)N(C)c5ccc(C#N)cc5)cn34)cc2)o1` [Compound 163, N-(4-cyanophenyl)-N-methyl-3-[4-(5-methyl-1,3,4-oxadiazol-2-yl)phenyl]imidazo[1,2-a]pyrazine-6-carboxamide], where the note is “Erythrocyte”, the EC50 turned out to be 2630 nM. As for `CN(C)c1ccc(-c2cnc3cnc(C(=O)N(C)c4ccc(S(C)(=O)=O)cc4)cn23)cc1` [Compound 164, 3-[4-(dimethylamino)phenyl]-N-(4-methanesulfonylphenyl)-N-methylimidazo[1,2-a]pyrazine-6-carboxamide], the EC50 (Erythrocyte) was 961 nM. As to `CN(C(=O)c1cn2c(-c3ccc(C4NC(=O)NC4=O)cc3)cnc2cn1)c1ccc(C#N)cc1` (centres unmarked) [Compound 165, N-(4-cyanophenyl)-3-[4-(2,5-dioxoimidazolidin-4-yl)phenyl]-N-methylimidazo[1,2-a]pyrazine-6-carboxamide], for the setting “Erythrocyte”, the EC50 was determined as 4610 nM. Turning to `COC(=O)c1ccc(-c2cnc3cnc(C(=O)N(C)c4ccc(C#N)cc4)cn23)cc1` [Compound 166, methyl 4-{6-[(4-cyanophenyl)(methyl)carbamoyl]imidazo[1,2-a]pyrazin-3-yl}benzoate], where the note is “Erythrocyte”, the EC50 amounted to 206 nM. As for `CN(C(=O)c1cn2c(-c3ccc4cnccc4c3)cnc2cn1)c1ccc(C#N)cc1` [Compound 167, N-(4-cyanophenyl)-3-(isoquinolin-6-yl)-N-methylimidazo[1,2-a]pyrazine-6-carboxamide], the EC50 (Erythrocyte) was found to be 4870 nM. Still for that read-out and setting: under `CN(C(=O)c1cn2c(-c3ccc4c(=O)[nH]ccc4c3)cnc2cn1)c1ccc(C#N)cc1` [Compound 168, N-(4-cyanophenyl)-N-methyl-3-(1-oxo-1,2-dihydroisoquinolin-6-yl)imidazo[1,2-a]pyrazine-6-carboxamide] stands 558 nM; under `CN(C(=O)c1cn2c(-c3ccc(C(F)(F)F)c(F)c3)cnc2cn1)c1ccc(C#N)cc1` [Compound 169, N-(4-cyanophenyl)-3-[3-fluoro-4-(trifluoromethyl)phenyl]-N-methylimidazo[1,2-a]pyrazine-6-carbox], 497 nM; under `CCCOc1ccc(-c2cnc3cnc(C(=O)N(C)c4ccc(C#N)cc4)cn23)cn1` [Compound 170, N-(4-cyanophenyl)-N-methyl-3-(6-propoxypyridin-3-yl)imidazo[1,2-a]pyrazine-6-carboxamide], 4070 nM. `CN(C(=O)c1cn2c(-c3ccc(C(F)(F)F)cc3)cnc2cn1)c1ccccc1C(F)(F)F` [Compound 171, N-methyl-N-[2-(trifluoromethyl)phenyl]-3-[4-(trifluoromethyl)phenyl]imidazo[1,2-a]pyrazine-6-carboxamide]: the EC50 (Erythrocyte) was 4010 nM. For `CN(C(=O)c1cn2c(-c3ccc(C(N)=O)cc3)cnc2cn1)c1ccc(S(C)(=O)=O)cc1` [Compound 172, 3-(4-carbamoylphenyl)-N-(4-methanesulfonylphenyl)-N-methylimidazo[1,2-a]pyrazine-6-carboxamide], under “Erythrocyte”, the EC50 came to 1130 nM. With `CN(C(=O)c1cn2c(-c3ccc(C(F)(F)F)cc3)cnc2cn1)c1ccc(OC(F)(F)F)cc1` [Compound 173, N-methyl-N-[4-(trifluoromethoxy)phenyl]-3-[4-(trifluoromethyl)phenyl]imidazo[1,2-a]pyrazine-6-carboxamide], the EC50 (Erythrocyte) stood at 4250 nM. Same read-out and setting: with `CN(C(=O)c1cn2c(-c3ccc(C(F)(F)F)cc3)cnc2cn1)c1nccn1C` [Compound 174, N-methyl-N-(1-methyl-1H-imidazol-2-yl)-3-[4-(trifluoromethyl)phenyl]imidazo[1,2-a]pyrazine-6-carboxamide] the figure was 4750 nM; with `CN(C(=O)c1cn2c(-c3cccc(C(F)(F)F)c3)cnc2cn1)c1ccc(C#N)cc1` [Compound 175, N-(4-cyanophenyl)-N-methyl-3-[3-(trifluoromethyl)phenyl]imidazo[1,2-a]pyrazine-6-carboxamide], 3280 nM.
